Measured values published in the supplement of paper PMC10307832.

Columns and labels:
Experiment in all cases: relative viability (nuclei count vs DMSO), 5 days (fraction); higher = more cells survive
R406 = compound: COc1cc(Nc2ncc(F)c(Nc3ccc4c(n3)NC(=O)C(C)(C)O4)n2)cc(OC)c1OC [R406]
Procedure, shortened: (§1)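 Only plates meeting two conditions passed: control CV below 25% and at least one doubling. Lung cancer cell lines, kept overnight at 37 °C in 1536-well plates, were pinned with five library-drug doses (not always all listed) √10 apart on vehicle-anchored plates and grown 5 days without medium change. A one-step fix, permeabilisation and Hoechst stain preceded 4× imaging and MetaXpress nuclear counting. Viability equals treated-well nuclei divided by vehicle-well nuclei, as the median over plates.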

Daporinad = compound: O=C(/C=C/c1cccnc1)NCCCCC1CCN(C(=O)c2ccccc2)CC1 [Daporinad]
Procedure, shortened: as §1

R406 + Navitoclax = compound: COc1cc(Nc2ncc(F)c(Nc3ccc4c(n3)NC(=O)C(C)(C)O4)n2)cc(OC)c1OC [R406] + CC1(C)CCC(c2ccc(Cl)cc2)=C(CN2CCN(c3ccc(C(=O)NS(=O)(=O)c4ccc(N[C@H](CCN5CCOCC5)CSc5ccccc5)c(S(=O)(=O)C(F)(F)F)c4)cc3)CC2)C1 [Navitoclax] (partner 0.5 µM)
Procedure, shortened: (§2)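 Relative viability is defined as nuclei in treated wells over nuclei in vehicle wells. Duplicate plates were run and medians reported. Lung cancer cell lines in 1536-well plates were dosed by pin tool one day after seeding, with one drug or with a fixed anchor-drug dose plus five library-drug doses (not always all listed) in √10 steps, and nuclei were counted after 5 days.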

R406 + Foretinib = compound: COc1cc(Nc2ncc(F)c(Nc3ccc4c(n3)NC(=O)C(C)(C)O4)n2)cc(OC)c1OC [R406] + COc1cc2c(Oc3ccc(NC(=O)C4(C(=O)Nc5ccc(F)cc5)CC4)cc3F)ccnc2cc1OCCCN1CCOCC1 [Foretinib] (partner 0.25 µM)
Procedure, shortened: as §2

Row | Cell Line | relative viability (R406; 0.08 µM) | relative viability (R406; 0.253 µM) | relative viability (R406; 0.8 µM) | relative viability (R406; 2.53 µM) | relative viability (R406; 8 µM) | relative viability (Daporinad; 0.0005 µM) | relative viability (Daporinad; 0.001581 µM) | relative viability (Daporinad; 0.005 µM) | relative viability (Daporinad; 0.01581 µM) | relative viability (R406 + Navitoclax; first compound 0.08 µM) | relative viability (R406 + Navitoclax; first compound 0.253 µM) | relative viability (R406 + Navitoclax; first compound 0.8 µM) | relative viability (R406 + Navitoclax; first compound 2.53 µM) | relative viability (R406 + Navitoclax; first compound 8 µM) | relative viability (R406 + Foretinib; first compound 0.08 µM) | relative viability (R406 + Foretinib; first compound 0.253 µM) | relative viability (R406 + Foretinib; first compound 0.8 µM) | relative viability (R406 + Foretinib; first compound 2.53 µM) | relative viability (R406 + Foretinib; first compound 8 µM)
1 | RERF-LC-KJ | 0.98 | 1.06 | 1.06 | 0.781 | 0.827 | 0.923 | 1.04 | 1.07 | 1.02 | 1.09 | 0.64 | 1.03 | 0.738 | 0.842 | 0.937 | 0.951 | 0.997 | 0.785 | 0.809
2 | BEN | 0.862 | 1.24 | 1.03 | 1.05 | 0.832 | 0.962 | 1.04 | 0.969 | 1.31 | 0.0867 | 0.0733 | 0.0583 | 0.0663 | 0.0726 | 0.884 | 0.609 | 0.691 | 0.879 | 0.578
3 | NCI-H1666 | 1 | 1.02 | 1.05 | 1.03 | 0.876 | 0.891 | 1.17 | 1.05 | 1 | 0.627 | 0.879 | 0.932 | 0.941 | 0.413 | 0.926 | 1.07 | 0.977 | 0.869 | 0.59
4 | LC-2-ad | 0.965 | 0.987 | 1.04 | 0.539 | 0.312 | 0.934 | 1.1 | 1.03 | 0.957 | 0.514 | 0.479 | 0.453 | 0.18 | 0.101 | 0.899 | 1.03 | 0.903 | 0.7 | 0.547
5 | SW 1573 | 1.02 | 1.11 | 1.11 | 0.803 | 0.543 | 1.02 | 1.15 | 0.929 | 0.678 | 0.956 | 1.1 | 1.2 | 0.794 | 0.5 | 0.908 | 0.915 | 0.887 | 0.932 | 0.665
6 | ChaGo-K-1 | 0.948 | 1.12 | 0.974 | 0.944 | 0.73 | 1.03 | 0.86 | 0.94 | 0.509 | 0.969 | 1.16 | 1.01 | 0.947 | 0.44 | 0.926 | 1.07 | 1.09 | 0.771 | 0.531
7 | COR-L 105 | 0.911 | 1.05 | 1.12 | 0.666 | 0.418 | 0.906 | 0.976 | 0.991 | 0.969 | 0.858 | 0.755 | 1.02 | 0.805 | 0.558 | 0.898 | 1.4 | 1.34 | 1.1 | 0.504
8 | NCI-H1975 | 0.848 | 1.03 | 1.02 | 0.479 | 0.385 | 1.05 | 0.916 | 1.01 | 0.968 | 1.02 | 1.2 | 1.19 | 0.503 | 0.237 | 0.9 | 1.05 | 0.986 | 0.492 | 0.227
9 | Calu-6 | 0.98 | 1.06 | 1.11 | 0.724 | 0.503 | 0.955 | 1.04 | 0.917 | 0.533 | 0.798 | 0.809 | 0.949 | 0.579 | 0.316 | 0.842 | 0.927 | 0.924 | 0.687 | 0.553
10 | NCI-H1993 | 1.01 | 1.09 | 0.921 | 0.658 | 0.599 | 0.881 | 0.99 | 1.05 | 1.15 | 0.974 | 0.98 | 0.848 | 0.78 | 0.7 | 0.72 | 0.756 | 0.846 | 0.642 | 0.577
11 | SK-LU-1 | 0.955 | 1.16 | 1.15 | 0.513 | 0.386 | 1.06 | 1.11 | 1.19 | 1.12 | 0.483 | 1.2 | 0.725 | 0.385 | 0.145 | 0.708 | 0.816 | 0.992 | 0.439 | 0.12
12 | NCI-H23 | 0.948 | 1.21 | 1.1 | 0.264 | 0.252 | 1.03 | 1.06 | 0.973 | 0.53 | 0.712 | 0.884 | 1.07 | 0.733 | 0.518 | 0.989 | 1.05 | 0.977 |  | 0.206
13 | HCC-366 | 1 | 1.1 | 1.03 | 0.432 | 0.565 | 1.04 | 1.01 | 1.02 | 1.03 | 0.855 | 1.18 | 1.16 |  | 0.663 | 0.957 | 0.933 | 0.956 | 0.847 | 0.137
14 | EMC-BAC-2 | 0.917 | 1.13 | 1.08 | 0.849 | 0.405 | 1.01 | 1.09 | 0.766 | 0.487 | 1.11 | 1.38 | 1.31 | 1.12 | 0.917 | 0.98 | 1.05 | 1.11 | 0.385 | 0.579
15 | NCI-H2405 | 0.98 | 1.11 | 1.06 | 0.746 | 0.382 | 1.08 | 1.12 | 1.02 | 0.509 | 0.823 | 0.844 | 0.928 | 0.691 | 0.156 | 0.961 | 1.15 | 1.11 | 0.934 | 0.775
16 | NCI-H1944 | 0.932 | 1.08 | 0.986 | 0.858 | 0.783 | 0.921 | 1.05 | 1.07 | 1.02 | 0.992 | 1.05 | 1.05 | 0.846 | 0.743 | 0.867 | 0.93 | 0.966 | 0.756 | 0.682
